Results from patent US20140357713A1, “ANTIMICROBIAL COMPOUNDS AND METHODS OF USE” (NexMed Holdings, Inc., priority 2012, published 2014).
Where a name gives a salt, the structure may show the parent alone. Read-outs that look alike come from different tables or passages of the source.

Key:
[1] = test system: Candida albicans (ATCC 90029); assay: Minimum inhibitory concentration (MIC) assay, Example 33; type: cell-based; settings: Candida albicans
Procedure, shortened: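 MIC read per CLSI after incubation at 35° C. Colonies in RPMI 1640 adjusted to OD530 0.08–0.13, diluted 1:50 and 1:20 to twice test density, then added 1:2 to wells holding 2-fold serial drug dilutions in RPMI 1640 (CLSI microdilution).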

pH (Table 1) = type: physicochemical
[2] = test system: Staphulococcus aureus (ATCC 29213); assay: Minimum inhibitory concentration (MIC) assay, Example 33; type: cell-based, Staphylococcus aureus; settings: Staphylococcus aureus
Procedure, shortened: (§1)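 Colonies re-streaked twice on agar (20 to 24 hrs, 35±2° C) supplied inoculum adjusted to 0.5 McFarland, diluted 1:100 into medium, then added 1:2 to CAMHB wells holding 2-fold compound dilutions. After incubation at 35° C, MIC was recorded per CLSI.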

[3] = test system: Aspergillus niger (CMCC 98003); assay: Time kill study, Example 33 (0 to 5 min); type: cell-based; settings: 1×MIC
Protocol: Thirty compounds were tested for antimicrobial activity using standard procedures and standard strains for both the minimum inhibitory concentration (MIC) assay and a time kill study. Both the MIC assay and the time kill study were performed according to Clinical and Laboratory Standards Institute (CLSI) guidelines. Three bacteria strains, Escherichia coli (ATCC 25922), Pseudomonas aeruginosa (ATCC 27853), Staphulococcus aureus (ATCC 29213), and two fungus strains, Candida albicans (ATCC 90029) and Aspergillus niger (CMCC 98003), were used in the experiments.
The viable counts in Log10 CFU/mL at each time point were recorded.
Time kill studies. Strain suspensions were prepared as described above for the MIC test, and strain suspensions and compound solutions were mixed in the same volume. Samples were removed at specified times including 0 min, 30 sec, 1 min and 5 mins, were diluted in the test medium and streaked on agar. Colonies were counted after 24 to 48 hrs of incubation.
The MIC values for thirty compounds against Escherichia coli, Pseudomonas aeruginosa, Staphulococcus aureus, Candida albicans, and Aspergillus niger were recorded and are presented in Table 3 and Table 4.

[4] = test system: Pseudomonas aeruginosa (ATCC 27853); assay: Minimum inhibitory concentration (MIC) assay, Example 33; type: cell-based; settings: Pseudomonas aeruginosa
Procedure, shortened: as §1

[5] = test system: Escherichia coli (ATCC 25922); assay: as above; type: cell-based; settings: Escherichia coli
Procedure, shortened: as §1

[6] = Solubility (Sol., Table 1); type: physicochemical
[7] = test system: Pseudomonas aeruginosa (ATCC 27853); assay: Time kill study, Example 33 (0 to 5 min); type: cell-based; settings: 1×MIC
Procedure, shortened: (§2)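 CLSI time-kill: suspension + compound solution, 1:1 by volume. Sampled 0 min, 30 sec, 1 min, 5 mins; diluted in test medium, streaked on agar. Colonies counted at 24 to 48 hrs; read-out Log10 CFU/mL.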

[8] = test system: Candida albicans (ATCC 90029); assay: Time kill study, Example 33 (0 to 5 min); type: cell-based; settings: 1×MIC
Procedure, shortened: as §2

[9] = test system: Staphylococcus aureus (ATCC 29213); assay: Time kill study, Example 33 (0 to 5 min); type: cell-based; settings: 1×MIC
Procedure, shortened: as §2

[10] = test system: Escherichia coli (ATCC 25922); assay: Time kill study, Example 33 (0 to 5 min); type: cell-based; settings: 1×MIC
Procedure, shortened: as §2

[11] = test system: Aspergillus niger (CMCC 98003); assay: Minimum inhibitory concentration (MIC) assay, Example 33; type: cell-based; settings: for MIC: Aspergillus niger; for MIC Aspergillus niger: n = 2
Procedure, shortened: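 Conidia gently probed from sporulating colonies into RPMI 1640, set to 0.09-0.13 at 530 nm, then diluted 1:50 and mixed 1:2 with 2-fold serially diluted compounds. Following CLSI guidelines, incubation was at 35 °C before the MIC was recorded.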

[12] = ATCC90029, read-out: MIC Candida albicans, n = 1
[13] = ATCC90029, read-out: MIC Candida albicans, n = 2
[14] = ATCC29213, read-out: MIC S. aureus, n = 1
[15] = ATCC29213, read-out: MIC S. aureus, n = 2
[16] = ATCC27853, read-out: MIC P. aeruginosa, n = 1
[17] = ATCC27853, read-out: MIC P. aeruginosa, n = 2
[18] = ATCC25922, Table 19 summary of Example 33 and Example 35
[19] = ATCC25922, read-out: MIC E. coli, n = 1
[20] = ATCC25922, read-out: MIC E. coli, n = 2
[21] = CMCC98003, read-out: MIC Aspergillus niger

| SMILES | melting point | MIC ([1]; ATCC90029, Table 19 summary) | MIC [1, 12] | MIC [1, 13] | pH (pH (Table 1)) | MIC ([2]; ATCC29213, Table 19 summary) | MIC [2, 14] | MIC [2, 15] | MIC ([4]; ATCC27853, Table 19 summary) | MIC [4, 16] | MIC [4, 17] | MIC [5, 18] | MIC [5, 19] | MIC [5, 20] | Sol. [6] | Viable counts, Pseudomonas aeruginosa time kill study ([7]; 0.5 min) | Viable counts, Pseudomonas aeruginosa time kill study ([7]; 1 min) | Viable counts, Pseudomonas aeruginosa time kill study ([7]; 5 min) | Viable counts, Pseudomonas aeruginosa time kill study ([7]; time 0) | Viable counts, Candida albicans time kill study ([8]; 0.5 min) | other results |
| --- | --- | --- | --- | --- | --- | --- | --- | --- | --- | --- | --- | --- | --- | --- | --- | --- | --- | --- | --- | --- | --- |
| CCCCCCCCCCCCOC(=O)C(C)(C)N(C)C (as salt: hydrochloride) [Nex-58, Dodecyl 2-(dimethylamino)-2-methylpropanoate hydrochloride] | 68 to 74 °C | – | – | – | – | – | – | – | – | – | – | – | – | – | – | – | – | – | – | – | – |
| CCCCCCCCCCCC(C)OC(=O)C(C)N(C)C (centres unmarked) (as salt: hydrochloride) [Nex-64, Tridecan-2-yl 2-(dimethylamino)propanoate hydrochloride] | 88 to 94 °C | – | – | – | – | – | – | – | – | – | – | – | – | – | – | – | – | – | – | – | – |
| CCCCCCCCCCCCOC(=O)C(C)N(C)C (centres unmarked) (as salt: maleate) [Nex-20, Dodecyl 2-(dimethylamino)propanoate maleate] | 65 to 70 °C | – | – | – | – | – | – | – | – | – | – | – | – | – | – | – | – | – | – | – | – |
| CCCCCCCCCCCCOC(=O)C(C)N(C)C (centres unmarked) (as salt: methanesulfonate) [Nex-22, Dodecyl 2-(dimethylamino)propanoate methanesulfonate] | 66 to 72 °C | – | – | – | – | – | – | – | – | – | – | – | – | – | – | – | – | – | – | – | – |
| CCCCCCCCCCCCOC(=O)C(C)N(C)C (centres unmarked) (as salt: salt) [Nex-30, Dodecyl 2-(dimethylamino)propanoate ethanesulfonate] | 45 to 50 °C | – | – | – | – | – | – | – | – | – | – | – | – | – | – | – | – | – | – | – | – |
| CCCCCCCCCCCCOC(=O)C(C)N(C)C (centres unmarked) (as salt: salt) [Nex-46, Dodecyl 2-(dimethylamino)propanoate 2-hydroxyethanesulfonate] | 58 to 63 °C | – | – | – | – | – | – | – | – | – | – | – | – | – | – | – | – | – | – | – | – |
| CCCCCCCCCCCCOC(=O)CN(C)C [Nex-52, Dodecyl 2-(dimethylamino)acetate hydrochloride] | – | 50 µg/mL | 50 µg/mL | 50 µg/mL | 3.30 | 200 µg/mL | 200 µg/mL | 100 µg/mL | 6250 µg/mL | 6250 µg/mL | 6250 µg/mL | 1560 µg/mL | 1560 µg/mL | 1560 µg/mL | 49% | 4.7 Log10 CFU/mL | 4 Log10 CFU/mL | <3.52 Log10 CFU/mL | 5.56 Log10 CFU/mL | 5.19 Log10 CFU/mL | Viable counts, Aspergillus niger time kill study ([3]; 0.5 min): 5.28 Log10 CFU/mL; Viable counts, Aspergillus niger time kill study ([3]; 1 min): 5.28 Log10 CFU/mL; Viable counts, Aspergillus niger time kill study ([3]; 5 min): 4.95 Log10 CFU/mL; Viable counts, Aspergillus niger time kill study ([3]; time 0): 5.30 Log10 CFU/mL; Viable counts, Candida albicans time kill study ([8]; 1 min): 5.17 Log10 CFU/mL; Viable counts, Candida albicans time kill study ([8]; 5 min): 5.23 Log10 CFU/mL; Viable counts, Candida albicans time kill study ([8]; time 0): 5.24 Log10 CFU/mL; Viable counts, Staphylococcus aureus time kill study ([9]; 0.5 min): 6.27 Log10 CFU/mL; Viable counts, Staphylococcus aureus time kill study ([9]; 1 min): 6.12 Log10 CFU/mL; Viable counts, Staphylococcus aureus time kill study ([9]; 5 min): 6.13 Log10 CFU/mL; Viable counts, Staphylococcus aureus time kill study ([9]; time 0): 6.26 Log10 CFU/mL; Viable counts, Escherichia coli time kill study ([10]; 0.5 min): 6.12 Log10 CFU/mL; Viable counts, Escherichia coli time kill study ([10]; 1 min): 5.86 Log10 CFU/mL; Viable counts, Escherichia coli time kill study ([10]; 5 min): 5.24 Log10 CFU/mL; Viable counts, Escherichia coli time kill study ([10]; time 0): 5.95 Log10 CFU/mL; MIC ([11]; CMCC98003): 3130 µg/mL; MIC [11, 21]: 3130 µg/mL; MIC Aspergillus niger [11]: 3130 µg/mL |
| CCCCCCCCCCOC(=O)C(C)N(C)C (centres unmarked) [Nex-68, Decyl 2-(dimethylamino)propanoate hydrochloride] | – | 390 µg/mL | 390 µg/mL | 200 µg/mL | 0.87 | 3130 µg/mL | 3130 µg/mL | 3130 µg/mL | 3130 µg/mL | 3130 µg/mL | 3130 µg/mL | 780 µg/mL | 780 µg/mL | 1560 µg/mL | 97% | 5.18 Log10 CFU/mL | 4.88 Log10 CFU/mL | 4.87 Log10 CFU/mL | 5.78 Log10 CFU/mL | 5.35 Log10 CFU/mL | Viable counts, Aspergillus niger time kill study ([3]; 0.5 min): 5.25 Log10 CFU/mL; Viable counts, Aspergillus niger time kill study ([3]; 1 min): 5.25 Log10 CFU/mL; Viable counts, Aspergillus niger time kill study ([3]; 5 min): 5.25 Log10 CFU/mL; Viable counts, Aspergillus niger time kill study ([3]; time 0): 5.25 Log10 CFU/mL; Viable counts, Candida albicans time kill study ([8]; 1 min): 5.15 Log10 CFU/mL; Viable counts, Candida albicans time kill study ([8]; 5 min): 5.13 Log10 CFU/mL; Viable counts, Candida albicans time kill study ([8]; time 0): 5.47 Log10 CFU/mL; Viable counts, Staphylococcus aureus time kill study ([9]; 0.5 min): 5.82 Log10 CFU/mL; Viable counts, Staphylococcus aureus time kill study ([9]; 1 min): 5.88 Log10 CFU/mL; Viable counts, Staphylococcus aureus time kill study ([9]; 5 min): 5.57 Log10 CFU/mL; Viable counts, Staphylococcus aureus time kill study ([9]; time 0): 6.39 Log10 CFU/mL; Viable counts, Escherichia coli time kill study ([10]; 0.5 min): 5.53 Log10 CFU/mL; Viable counts, Escherichia coli time kill study ([10]; 1 min): 4.3 Log10 CFU/mL; Viable counts, Escherichia coli time kill study ([10]; 5 min): <3.52 Log10 CFU/mL; Viable counts, Escherichia coli time kill study ([10]; time 0): 5.88 Log10 CFU/mL; MIC ([11]; CMCC98003): 3130 µg/mL; MIC [11, 21]: 3130 µg/mL; MIC Aspergillus niger [11]: 3130 µg/mL |
| CCCCCCCCOC(=O)C(C)N(C)C (centres unmarked) [Nex-70, Octyl 2-(dimethylamino)propanoate hydrochloride] | – | 780 µg/mL | 780 µg/mL | 780 µg/mL | 0.88 | 3130 µg/mL | 3130 µg/mL | 3130 µg/mL | 3130 µg/mL | 3130 µg/mL | 3130 µg/mL | 780 µg/mL | 780 µg/mL | 780 µg/mL | 134% | <4.0 Log10 CFU/mL | <3.70 Log10 CFU/mL | <3.52 Log10 CFU/mL | 5.62 Log10 CFU/mL | 5.53 Log10 CFU/mL | Viable counts, Candida albicans time kill study ([8]; 1 min): 5.51 Log10 CFU/mL; Viable counts, Candida albicans time kill study ([8]; 5 min): 5.49 Log10 CFU/mL; Viable counts, Candida albicans time kill study ([8]; time 0): 5.55 Log10 CFU/mL; Viable counts, Staphylococcus aureus time kill study ([9]; 0.5 min): 6.42 Log10 CFU/mL; Viable counts, Staphylococcus aureus time kill study ([9]; 1 min): 6.37 Log10 CFU/mL; Viable counts, Staphylococcus aureus time kill study ([9]; 5 min): 6.22 Log10 CFU/mL; Viable counts, Staphylococcus aureus time kill study ([9]; time 0): 6.37 Log10 CFU/mL; Viable counts, Escherichia coli time kill study ([10]; 0.5 min): <4.0 Log10 CFU/mL; Viable counts, Escherichia coli time kill study ([10]; 1 min): <3.70 Log10 CFU/mL; Viable counts, Escherichia coli time kill study ([10]; 5 min): <3.52 Log10 CFU/mL; Viable counts, Escherichia coli time kill study ([10]; time 0): 5.0 Log10 CFU/mL; MIC ([11]; CMCC98003): 12500 µg/mL; MIC [11, 21]: 12500 µg/mL; MIC Aspergillus niger [11]: 12500 µg/mL |
